We go through 24 molecules from patent US12098144B2, “Piperazine indazole glucocorticoid receptor antagonists” (Corcept Therapeutics Incorporated, priority 2021, dated 2024).

The target in this assay is T1, glucocorticoid receptor (Homo sapiens, UniProt P04150).
T1 construct: endogenous in cells; ATCC cat
T1 sequence (P04150 1-777): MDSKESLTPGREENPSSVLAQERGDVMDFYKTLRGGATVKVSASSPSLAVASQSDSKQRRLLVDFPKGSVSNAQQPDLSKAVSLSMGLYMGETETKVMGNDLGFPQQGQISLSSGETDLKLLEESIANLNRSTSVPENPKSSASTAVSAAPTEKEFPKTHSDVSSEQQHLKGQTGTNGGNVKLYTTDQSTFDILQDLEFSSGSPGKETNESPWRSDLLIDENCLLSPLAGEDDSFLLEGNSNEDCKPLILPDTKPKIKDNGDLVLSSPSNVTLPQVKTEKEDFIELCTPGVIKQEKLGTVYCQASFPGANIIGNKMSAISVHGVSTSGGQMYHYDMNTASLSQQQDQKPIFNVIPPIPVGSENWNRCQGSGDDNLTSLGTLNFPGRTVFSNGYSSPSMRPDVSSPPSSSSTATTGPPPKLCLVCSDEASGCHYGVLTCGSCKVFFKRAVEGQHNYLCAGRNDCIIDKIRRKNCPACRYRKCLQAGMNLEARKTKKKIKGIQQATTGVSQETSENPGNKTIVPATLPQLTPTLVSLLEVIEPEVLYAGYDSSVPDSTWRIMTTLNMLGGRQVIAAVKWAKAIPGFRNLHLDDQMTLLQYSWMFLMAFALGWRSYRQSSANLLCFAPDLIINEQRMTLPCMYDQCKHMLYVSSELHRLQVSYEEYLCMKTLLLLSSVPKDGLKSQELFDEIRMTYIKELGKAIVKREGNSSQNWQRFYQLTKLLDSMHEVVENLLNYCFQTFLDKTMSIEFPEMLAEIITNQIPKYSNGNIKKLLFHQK
Kind of assay: Hep G2 TAT Ki: inhibition of dexamethasone-induced TAT in HepG2 cells (96 well). It is filed as cell-based. Conditions: challenge of 100 nM dexamethasone, IC50 converted to Ki by Cheng and Prusoff equation. As to the method:
Glucocorticoid mediated activation of TAT occurs by transactivation of glucocorticoid response elements in the TAT promoter by glucocorticoid receptor-agonist complex.
HepG2 cells were cultured using MEME media supplemented with 10% (v/v) foetal bovine serum; 2 mM L-glutamine and 1% (v/v) NEAA at 37° C., 5%/95% (v/v) CO2/air.
Compounds were serially half log diluted in 100% (v/v) dimethylsulphoxide from a 10 mM stock.
HepG2 cells were then lysed with 30 μl of cell lysis buffer containing a protease inhibitor cocktail for 15 minutes at 4° C. […] After 2 hours incubation at 37° C. the reaction was terminated by the addition of 15 μl of 10M aqueous potassium hydroxide solution, and the plates incubated for a further 30 minutes at 37° C.
[compound] and fitting the data to a 4 parameter logistic equation.
“5-(1-(2-fluoro-2-methylpropyl)-4-((2-methyl-2H-1,2,3-triazol-4-yl)sulfonyl)piperazin-2-yl)-1-(4-fluorophenyl)-6-methyl-1H-indazole [Example 162a]” had a Ki of 57 nM.
The result for `Cc1cc2c(cnn2-c2ccc(F)cc2)cc1[C@@H]1CN(S(=O)(=O)c2cnn(C)n2)CCN1C[C@H]1C[C@@H](O)C1` (racemic) [Example 154, 3-((2-(1-(4-fluorophenyl)-6-methyl-1H-indazol-5-yl)-4-((2-methyl-2H-1,2,3-triazol-4-yl)sulfonyl)piperazin-1-yl)methyl)cyclobutan-1-ol] reads 24 nM.
The result for `Cc1cc2c(cnn2-c2ccc(F)cc2)cc1[C@@H]1CN(S(=O)(=O)c2cnn(C)n2)CCN1C[C@H](C)F` (racemic) [Example 158, 1-(4-fluorophenyl)-5-(1-(2-fluoropropyl)-4-((2-methyl-2H-1,2,3-triazol-4-yl)sulfonyl)piperazin-2-yl)-6-methyl-1H-indazole] reads 45 nM; that for `Cc1cc2c(cnn2-c2ccc(F)cc2)cc1[C@H]1CN(S(=O)(=O)c2cnn(C)n2)C[C@@H](C)N1CC(C)C` (relative stereo) [Example 127], 22 nM.
The figure for `CO[C@H]1C[C@@H](CN2CCN(S(=O)(=O)c3cnn(C)n3)C[C@H]2c2cc3cnn(-c4ccc(F)cc4)c3cc2C)C1` (relative stereo) [Example 155, 1-(4-fluorophenyl)-5-(1-((3-methoxycyclobutyl)methyl)-4-((2-methyl-2H-1,2,3-triazol-4-yl)sulfonyl)piperazin-2-yl)-6-methyl-1H-indazole] is 11 nM.
`CO[C@H]1C[C@@H](CN2CCN(S(=O)(=O)c3cnc(C)s3)C[C@@H]2c2cc3cnn(-c4ccc(F)cc4)c3cc2C)C1` (relative stereo) [Example 172, 5-((3-(1-(4-fluorophenyl)-6-methyl-1H-indazol-5-yl)-4-((3-methoxycyclobutyl)methyl)piperazin-1-yl)sulfonyl)-2-methylthiazole] registered a Ki of 36 nM.
The result for `Cc1cc2c(cnn2-c2ccc(F)cc2)cc1C1CN(S(=O)(=O)c2ccn(C)n2)CCN1CC(C)C` (single isomer, unassigned) [Example 1, 1-(4-fluorophenyl)-5-(1-isobutyl-4-((1-methyl-1H-pyrazol-3-yl)sulfonyl)piperazin-2-yl)-6-methyl-1H-indazole] reads 35 nM; that for `Cc1cc2c(cnn2-c2ccc(F)cc2)cc1C1CN(S(=O)(=O)c2cnn(C)n2)CCN1Cc1ccccc1` (single isomer, unassigned) [Example 5, 5-(1-benzyl-4-((2-methyl-2H-1,2,3-triazol-4-yl)sulfonyl)piperazin-2-yl)-1-(4-fluorophenyl)-6-methyl-1H-indazole], 420 nM.
In the case of `Cc1cc2c(cnn2-c2ccc(F)cc2)cc1C1CN(S(=O)(=O)c2cnn(C)n2)CCN1Cc1ccccc1` (single isomer, unassigned) [Example 6, 5-(1-benzyl-4-((2-methyl-2H-1,2,3-triazol-4-yl)sulfonyl)piperazin-2-yl)-1-(4-fluorophenyl)-6-methyl-1H-indazole], the Ki came to 46 nM.
The result for `Cc1cc2c(cnn2-c2ccc(F)cc2)cc1C1CN(S(=O)(=O)c2cnn(C)n2)CCN1CC(C)C` (single isomer, unassigned) [Example 10, 1-(4-fluorophenyl)-5-(1-isobutyl-4-((2-methyl-2H-1,2,3-triazol-4-yl)sulfonyl)piperazin-2-yl)-6-methyl-1H-indazole] reads 430 nM; that for `Cc1cc2c(cnn2-c2ccc(F)cc2)cc1C1CN(S(=O)(=O)c2cnn(C)n2)CCN1CC(C)C` (single isomer, unassigned) [Example 11, 1-(4-fluorophenyl)-5-(1-isobutyl-4-((2-methyl-2H-1,2,3-triazol-4-yl)sulfonyl)piperazin-2-yl)-6-methyl-1H-indazole], 20 nM.
The result for `Cc1cc2c(cnn2-c2ccc(F)cc2)cc1C1CN(S(=O)(=O)c2ccn(C)n2)CCN1CC(C)C` (single isomer, unassigned) [Example 20, 1-(4-fluorophenyl)-5-(1-isobutyl-4-((1-methyl-1H-pyrazol-3-yl)sulfonyl)piperazin-2-yl)-6-methyl-1H-indazole] reads 130 nM; that for `Cc1cc2c(cnn2-c2ccc(F)cc2)cc1C1CN(S(=O)(=O)c2cnn(C)n2)CCN1CC(C)C(F)(F)F` (single isomer, unassigned) [Example 21, 1-(4-fluorophenyl)-6-methyl-5-(4-((2-methyl-2H-1,2,3-triazol-4-yl)sulfonyl)-1-(3,3,3-trifluoro-2-methylpropyl)piperazin-2-yl)-1H-indazole], 120 nM.
The result for `Cc1cc2c(cnn2-c2ccc(F)cc2)cc1[C@@H]1CN(S(=O)(=O)c2cnn(C)n2)CCN1CC(C)C(F)(F)F` (single isomer, unassigned) [Example 23] reads 13 nM; that for `Cc1cc2c(cnn2-c2ccc(F)cc2)cc1C1CN(S(=O)(=O)c2cnn(C)n2)CCN1C1CCC1` (single isomer, unassigned) [Example 25, 5-(1-cyclobutyl-4-((2-methyl-2H-1,2,3-triazol-4-yl)sulfonyl)piperazin-2-yl)-1-(4-fluorophenyl)-6-methyl-1H-indazole], 77 nM.
`COC1CC(N2CCN(S(=O)(=O)c3cnn(C)n3)CC2c2cc3cnn(-c4ccc(F)cc4)c3cc2C)C1` (single isomer, unassigned) [Example 26, 1-(4-fluorophenyl)-5-(1-(3-methoxycyclobutyl)-4-((2-methyl-2H-1,2,3-triazol-4-yl)sulfonyl)piperazin-2-yl)-6-methyl-1H-indazole]: the Ki turned out to be 180 nM.
The figure for `Cc1cc2c(cnn2-c2ccc(F)cc2)cc1C1CN(S(=O)(=O)c2cnn(C)n2)CCN1C1CCCC1` (single isomer, unassigned) [Example 27, 5-(1-cyclopentyl-4-((2-methyl-2H-1,2,3-triazol-4-yl)sulfonyl)piperazin-2-yl)-1-(4-fluorophenyl)-6-methyl-1H-indazole] is 47 nM; for `Cc1cc2c(cnn2-c2ccc(F)cc2)cc1C1CN(S(=O)(=O)c2cnn(C)n2)CCN1C1COC1` (single isomer, unassigned) [Example 28, 1-(4-fluorophenyl)-6-methyl-5-(4-((2-methyl-2H-1,2,3-triazol-4-yl)sulfonyl)-1-(oxetan-3-yl)piperazin-2-yl)-1H-indazole] it is 230 nM; for `Cc1cc2c(cnn2-c2ccc(F)cc2)cc1C1CN(S(C)(=O)=O)CCN1Cc1ccccc1` (single isomer, unassigned) [Example 29, 5-(1-benzyl-4-(methylsulfonyl)piperazin-2-yl)-1-(4-fluorophenyl)-6-methyl-1H-indazole] it is 74 nM.
The figure for `Cc1cc2c(cnn2-c2ccc(F)cc2)cc1C1CN(S(C)(=O)=O)CCN1CC1CCOCC1` (single isomer, unassigned) [Example 30, 1-(4-fluorophenyl)-6-methyl-5-(4-(methylsulfonyl)-1-((tetrahydro-2H-pyran-4-yl)methyl)piperazin-2-yl)-1H-indazole] is 90 nM; for `Cc1ncc(S(=O)(=O)N2CCN(CC(C)C)C(c3cc4cnn(-c5ccc(F)cc5)c4cc3C)C2)s1` (single isomer, unassigned) [Example 31, 5-((3-(1-(4-fluorophenyl)-6-methyl-1H-indazol-5-yl)-4-isobutylpiperazin-1-yl)sulfonyl)-2-methylthiazole] it is 11 nM.
In turn, `Cc1cc2c(cnn2-c2ccc(F)cc2)cc1C1CN(S(=O)(=O)c2cnn(C)n2)CCN1CC(C)C(F)(F)F` (single isomer, unassigned) [Example 33] gave a Ki of 11 nM. In other words, the double-digit nanomolar range.
The result for `COCCS(=O)(=O)N1CCN(CC(C)C)C(c2cc3cnn(-c4ccc(F)cc4)c3cc2C)C1` (single isomer, unassigned) [Example 45, 1-(4-fluorophenyl)-5-(1-isobutyl-4-((2-methoxyethyl)sulfonyl)piperazin-2-yl)-6-methyl-1H-indazole] reads 510 nM.
With `Cc1cc2c(cnn2-c2ccc(F)cc2)cc1C1CN(S(=O)(=O)CC2CC2)CCN1CC(C)C` (single isomer, unassigned) [Example 46, 5-(4-((cyclopropylmethyl)sulfonyl)-1-isobutylpiperazin-2-yl)-1-(4-fluorophenyl)-6-methyl-1H-indazole], the affinity corresponds to a Ki of 310 nM. This Ki lies about 1.6-fold lower than the previous one.

By Ki is commonly meant the dissociation constant of the complex between target and ligand, obtained from inhibition or displacement.
